According to publication PMC12933331, “A Cryptic Pocket Allosterically Modulates Oligosaccharide Binding to DC-SIGN” (JACS Au, 2026):
Substitutions are numbered along the chain they refer to.

What was measured:
Assay in all cases: Plate-based horseradish peroxidase assay
Format in all cases: binding
Details in all cases: 1 µg mL-1 HRP, 25 mM CaCl2
[1] = biological target: T1, DC-SIGN ECD M270F (Homo sapiens, UniProt Q9NNX6, M270F)
T1 construct: acids 64 -404 of DC -SIGN; made in house
T1 sequence (Q9NNX6 64-404 M270F): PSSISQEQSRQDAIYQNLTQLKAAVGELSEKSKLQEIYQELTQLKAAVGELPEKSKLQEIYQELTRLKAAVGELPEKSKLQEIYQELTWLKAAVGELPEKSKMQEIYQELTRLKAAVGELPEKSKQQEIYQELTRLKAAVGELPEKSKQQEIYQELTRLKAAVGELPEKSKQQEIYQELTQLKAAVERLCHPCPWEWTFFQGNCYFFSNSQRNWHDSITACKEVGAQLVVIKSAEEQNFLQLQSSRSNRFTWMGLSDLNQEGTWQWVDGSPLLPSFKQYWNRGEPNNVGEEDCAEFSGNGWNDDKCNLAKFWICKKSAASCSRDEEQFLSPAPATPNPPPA
Procedure: (§1) chromatography. Purified protein was dialyzed against 25 mM HEPES, 150 mM NaCl, 10 mM CaCl2, pH 7.4, concentrated using a centrifugal spin filter, snap frozen and then stored at -80°C. […]
(§2) Plate-based horseradish peroxidase assay
(§3) General remarks. Unless stated otherwise, all reagents and buffers were obtained from Sigma Aldrich or Carl Roth. Measurements were done on a Enspire Multimode Plate Reader (PerkinElmer). GraphPad Prism was used for all data processing and analysis.
(§4) CaCl2 titration. 100 µg mL-1 DC-SIGN ECD were immobilized in immobilization buffer (25 mM HEPES, 150 mM NaCl, 25 mM CaCl 2, pH 7.4) overnight at 4°C on transparent Nunc Maxisorp 96-well plates (Thermo Fisher). Protein solution was removed, and plates were washed three times with immobilization buffer and then blocked for 2 hours at 4°C with blocking buffer (25 mM HEPES, 150 mM NaCl, 25 mM CaCl 2, 2% BSA, 0.01% Tween -20). Plates were washed twice with 25 mM HEPES, 150 mM NaCl, 5 mM EDTA, pH 7.4 and twice with 25 mM HEPES, 150 mM NaCl, pH 7.4 to remove residual Ca 2+. To titrate Ca2+, CaCl2 in 25 mM HEPES, 150 mM NaCl, pH 7.4 was serially diluted on the plate at a constant HRP concentration of 1 µg mL-1 and then incubated at RT for 2 hours. Following incubation, plates were washed three times with 25 mM HEPES, 150 mM NaCl, pH 7.4 and bound HRP was detected using a TMB substrate kit (Thermo Fisher) and 0.18 M H2SO4 according to manufacturer’s instructions. Absorption was […]
(§5) HRP titration. Immobilization and blocking were done as described above. After blocking, plates were washed three times with immobilization buffer. HRP in immobilization buffer was serially diluted on the plate at a constant concentration CaCl2 concentration of 25 mM and then incubated […]
(§6) at RT for 2 hours. Following incubation, plates were washed three times with immobilization buffer and HRP was detected as described above.
(§7) Immobilization and blocking were done as described above. After blocking, plates were washed three times with immobilization buffer. Mannose in immobilization buffer containing 1 µg mL-1 HRP was serially diluted on the plate and then incubated at RT for 2 hours.
(§8) Following incubation, plates were washed three times with immobilization buffer and HRP was detected as described above.
(§9) All conditions were measured in technical triplicates, averaged and normalized to the control well […]
(§10) IC50 and EC50 values and hill […]
(§11) slopes (nH) were obtained in a four-parameter fit according to equation (1).
(§12) Y = bottom + top − bottom (1)
(§13) With bottom and top representing the minimal and maximal response plateaus, respectively, Y as the observed response and X the logarithmic concentration of the ligand . […]
(§14) Biosynth. Spectra were processed in TopSpin 4.2.0 and data analysis was performed using CCPN Analysis 3.2.0 for 2D spectra and in MestreNova for 1D spectra.2 Further analysis was done using GraphPad Prism and in-house python scripts.

[2] = biological target: T2, DC-SIGN ECD wildtype (Homo sapiens, UniProt Q9NNX6)
T2 construct: acids 64 -404 of DC -SIGN; made in house
T2 sequence (Q9NNX6 64-404): T1 sequence (Q9NNX6 64-404 M270F) with F207M
Procedure: as §1, §2, §3, §4, §5, §6, §7, §8, §9, §10, §11, §12, §13, §14

[3] = biological target: T3, DC-SIGN ECD T314A (Homo sapiens, UniProt Q9NNX6, T314A)
T3 construct: acids 64 -404 of DC -SIGN; made in house
T3 sequence (Q9NNX6 64-404 T314A): T1 sequence (Q9NNX6 64-404 M270F) with F207M, T251A

[4] = read-out: IC50, inhibition of HRP binding

## OC[C@H]1OC(O)[C@@H](O)[C@@H](O)[C@@H]1O (some centres unmarked) [mannose]
[1]
  hill slope, inhibition of HRP binding: -1.5
[1]; [4]
  IC50: 3100 µM
[2]
  hill slope, inhibition of HRP binding: -1.8
[2]; [4]
  IC50: 2300 µM
[3]
  hill slope, inhibition of HRP binding: -2.1
